The assay concerns individuals with poor sleep, anxiety, worry. Put plainly: Individual cases treated with the four herb combination. The assay is classed as in vivo, human. Particulars: third case; patient history, prostate medication. The text has this: For example, the four herb combination was used to treat three separate individuals, each at a different age with varying problems. The following are cases of how the four herb combination has improved the sleep onset, sleep maintenance, and energy of these individuals. […] They took Codeine and Paracetamol for 3 months, gradually reducing the dose whilst undergoing physiotherapy. The physiotherapy continued for approximately 6 months until the arm was fully functional and pain-free. One year after the original injury, their sleep was still impaired with onset and maintenance insomnia. The person stated that they “dreaded bedtime” and the hours they would be lying awake in bed. They worried during the day, with the worry increasing in the evening. […] In addition, they had changed their lifestyle avoiding commitments in the morning, and not socializing at night as they were worried that the stimulation would further impair their sleep. After 2 weeks on the herbal combination they noticed improvements. At 1 month, they were falling asleep within 20 minutes (versus over an hour before starting the treatment) and was waking up only once per night (versus 3 times or more before starting treatment). […] Their pattern was to readily fall asleep but then wake up 6 times throughout the night which led to urinating half the time, and then having difficulty returning to sleep. […]

SMILES strings stand for the structures.

In the case of `CCOc1ccccc1OCCN[C@H](C)Cc1ccc(OC)c(S(N)(=O)=O)c1` [Flomax, Tamsulosin], the reducing night-time urination entry was “some improvement” and the waking at nights entry is reported as “not reduced”.
